Data from patent EP1873155A1, “Inhibitors of the HIV integrase enzyme” (PFIZER INC., priority 2004, dated 2005).

test system: RF strain of HIV-1; experiment: HIV-1 cell protection assay (XTT dye reduction); assay type: cell-based; settings: CEM-SS cells infected with HIV-1 RF, six days, XTT formazan; read-out: EC50
Protocol: Example 61: HIV-1 Cell Protection Assay
The antiviral activities of potential modulator compounds (test compounds) were determined in HIV-1 cell protection assays using the RF strain of HIV-1, CEM-SS cells, and the XTT dye reduction method (Weislow, O.S. et al., J. Natl. Cancer Inst. 81: 577-586 (1989)). Subject cells were infected with HIV-1 RF virus at an moi of 0.025 to 0.819 or mock infected with medium only and added at 2 x 10^4 cells per well into 96 well plates containing half-log dilutions of test compounds. Six days later, 50 µl of XTT solution (1 mg/ml XTT tetrazolium and […] phenazine methosulfate) were added to the wells and the plates were reincubated for four hours. Viability, as determined by the amount of XTT formazan produced, was quantified spectrophotometrically by absorbance at 450 nm.
Data from CPE assays were expressed as the percent of formazan produced in compound-treated cells compared to formazan produced in wells of uninfected, compound-free cells. […] The therapeutic index was calculated by dividing the cytotoxicity (CC50) by the antiviral activity (EC50).

SMILES	EC50 [µM]
O=C1c2ncc3c(ccn3Cc3ccc(F)cc3)c2CCCN1O [Example 3, 3-(4-Fluorobenzyl)-7-hydroxy-7,8,9,1 0-tetrahydropyrrolo[3',2':4,5]pyrido[2,3-c]azepin-6(3H)-one]	0.029

same assay, conditions: Human immunodeficiency virus 1, CEM-SS, 144 h

SMILES	EC50 [µM]
O=C1c2ncc3c(ccn3Cc3ccc(F)cc3)c2CCN1O [Example 2, 3-(4-Fluorobenzyl)-7-hydroxy-3,7,8,9-tetrahydro-6H-pyrrolo[2,3-c]-1,7-naphthyridin-6-one]	0.0006
O=C(c1cn(Cc2ccc(F)cc2)c2cnc3c(=O)n(O)ccc3c12)N1CCCC1 [Example 26, 3-(4-fluorobenzyl)-7-hydroxy-1-(pyrrolidin-1-ylcarbonyl)-3,7-dihydro-6H-pyrrolo[2,3-c]-1,7-naphthyridin-6-one]	0.005
CC(=O)N1CCN(C(=O)c2cn(Cc3ccc(F)cc3)c3cnc4c(=O)n(O)ccc4c23)CC1 [Example 27, 1-[(4-acetylpiperazin-1-yl)carbonyl]-3-(4-fluorobenzyl)-7-hydroxy-3,7-dihydro-6H-pyrrolo[2,3-c]-1,7-naphthyridin-6-one]	0.019
O=C(NCCc1cnccn1)c1cn(Cc2ccc(F)cc2)c2cnc3c(=O)n(O)ccc3c12 [Example 28, 3-(4-fluorobenzyl)-7-hydroxy-6-oxo-N-(2-pyrazin-2-ylethyl)-6,7-dihydro-3H-pyrrolo[2,3-c]-1,7-naphthyridine-1-carboxamide]	0.024
O=C(NCc1ccccn1)c1cn(Cc2ccc(F)cc2)c2cnc3c(=O)n(O)ccc3c12 [Example 29, 3-(4-fluorobenzyl)-7-hydroxy-6-oxo-N-(pyridin-2-ylmethyl)-6,7-dihydro-3H-pyrrolo[2,3-c]-1,7-naphthyridine-1-carboxamide]	0.035
O=C(NCC(F)(F)F)c1cn(Cc2ccc(F)cc2)c2cnc3c(=O)n(O)ccc3c12 [Example 30, 3-(4-fluorobenzyl)-7-hydroxy-6-oxo-N-(2,2,2-trifluoroethyl)-6,7-dihydro-3H-pyrrolo[2,3-c]-1,7-naphthyridine-1-carboxamide]	0.013

same assay, conditions: Human immunodeficiency virus 1, CEM-SS, 144 h, CEM-SS cells infected with HIV-1 RF, six days, XTT formazan; read-out: EC50

SMILES	EC50 [µM]
O=c1c2ncc3c(ccn3Cc3ccc(F)cc3)c2ccn1O [Example 1, 3-(4-Fluorobenzyl)-7-hydroxy-3,7-dihydro-6H-pyrrolo[2,3-c]-1,7-naphthyridin-6-one]	0.0004
CN(C)Cc1cn(Cc2ccc(F)cc2)c2cnc3c(=O)n(O)ccc3c12 [Example 4, 1-[(dimethylamino)methyl]-3-(4-fluorobenzyl)-7-hydroxy-3,7-dihydro-6H-pyrrolo[2,3-c]-1,7-naphthyridin-6-one]	0.007
NC(=O)[C@@H]1CCCN1Cc1cn(Cc2ccc(F)cc2)c2cnc3c(=O)n(O)ccc3c12 [Example 5, 1-{[3-(4-fluorobenzyl)-7-hydroxy-6-oxo-6,7-dihydro-3H-pyrrolo[2,3-c]-1,7-naphthyridin-1-yl]methyl}-L-prolinamide]	0.038
O=C1CN(Cc2cn(Cc3ccc(F)cc3)c3cnc4c(=O)n(O)ccc4c23)CCN1 [Example 6, 3-(4-fluorobenzyl)-7-hydroxy-1-[(3-oxopiperazin-1-yl)methyl]-3,7-dihydro-6H-pyrrolo[2,3-c]-1,7-naphthyridin-6-one]	0.012
CN1CCN(Cc2cn(Cc3ccc(F)cc3)c3cnc4c(=O)n(O)ccc4c23)CC1 [Example 7, 3-(4-fluorobenzyl)-7-hydroxy-1-[(4-methylpiperazin-1-yl)methyl]-3,7-dihydro-6H-pyrrolo[2,3-c]-1 ,7-naphthyridin-6-one]	0.008
CCN1CCN(Cc2cn(Cc3ccc(F)cc3)c3cnc4c(=O)n(O)ccc4c23)CC1 [Example 8, 1-[(4-ethylpiperazin-1-yl)methyl]-3-(4-fluorobenzyl)-7-hydroxy-3,7-dihydro-6H-pyrrolo[2,3-c]-1,7-naphthyridin-6-one]	0.011
O=c1c2ncc3c(c(CN4CCc5ccccc5C4)cn3Cc3ccc(F)cc3)c2ccn1O [Example 10, 1-(3,4-dihydroisoquinolin-2(1H)-ylmethyl)-3-(4-fluorobenzyl)-7-hydroxy-3,7-dihydro-6H-pyrrolo[2,3-c]-1,7-naphthyridin-6-one]	0.00041
CCCCCN(C)Cc1cn(Cc2ccc(F)cc2)c2cnc3c(=O)n(O)ccc3c12 [Example 11, 3-(4-fluorobenzyl)-7-hydroxy-1-{[methyl(pentyl)amino]methyl}-3,7-dihydro-6H-pyrrolo[2,3-c]-1,7-naphthyridin-6-one]	0.003
NC(=O)[C@H]1CCCN1Cc1cn(Cc2ccc(F)cc2)c2cnc3c(=O)n(O)ccc3c12 [Example 12, 1-{[3-(4-fluorobenzyl)-7-hydroxy-6-oxo-6,7-dihydro-3H-pyrrolo[2,3-c]-1,7-naphthyridin-1-yl]methyl}-D-prolinamide]	0.004
O=C1NCCC12CCN(Cc1cn(Cc3ccc(F)cc3)c3cnc4c(=O)n(O)ccc4c13)CC2 [Example 13, 3-(4-fluorobenzyl)-7-hydroxy-1-[(1-oxo-2,8-diazaspiro[4.5]dec-8-yl)methyl]-3,7-dihydro-6H-pyrrolo[2,3-c]-1,7-naphthyridin-6-one]	0.013
CCN(Cc1cn(Cc2ccc(F)cc2)c2cnc3c(=O)n(O)ccc3c12)C1CCCCC1 [Example 14, 1-{[cyclohexyl(ethyl)amino]methyl}-3-(4-fluorobenzyl)-7-hydroxy-3,7-dihydro-6H-pyrrolo[2,3-c]-1,7-naphthyridin-6-one]	0.008
O=C(CN1CCN(Cc2cn(Cc3ccc(F)cc3)c3cnc4c(=O)n(O)ccc4c23)CC1)N1CCCC1 [Example 15, 3-(4-fluorobenzyl)-7-hydroxy-1-{[4-(2-oxo-2-pyrrolidin-1-ylethyl)piperazin-1-yl]methyl}-3,7-dihydro-6H-pyrrolo[2,3-c]-1,7-naphthyridin-6-one]	0.039
CN(CCc1ccccn1)Cc1cn(Cc2ccc(F)cc2)c2cnc3c(=O)n(O)ccc3c12 [Example 16, 3-(4-fluorobenzyl)-7-hydroxy-1-{[methyl(2-pyridin-2-ylethyl)amino]methyl}-3,7-dihydro-6H-pyrrolo[2,3-c]-1,7-naphthyridin-6-one]	0.007
O=C1CCCN1CC1(O)CCN(Cc2cn(Cc3ccc(F)cc3)c3cnc4c(=O)n(O)ccc4c23)CC1 [Example 18, 3-(4-fluorobenzyl)-7-hydroxy-1-({4-hydroxy-4-[(2-oxopyrrolidin-1-yl)methyl]piperidin-1-yl}methyl)-3,7-dihydro-6H-pyrrolo[2,3-c]-1,7-naphthyridin-6-one]	0.067
O=C1CCN(Cc2cn(Cc3ccc(F)cc3)c3cnc4c(=O)n(O)ccc4c23)CCN1 [Example 19, 3-(4-fluorobenzyl)-7-hydroxy-1-[(5-oxo-1,4-diazepan-1-yl)methyl]-3,7-dihydro-6H-pyrrolo[2,3-c]-1,7-naphthyridin-6-one]	0.015
NC(=O)[C@@H]1CCCN1S(=O)(=O)c1cn(Cc2ccc(F)cc2)c2cnc3c(=O)n(O)ccc3c12 [Example 20, 1-{[3-(4-fluorobenzyl)-7-hydroxy-6-oxo-6,7-dihydro-3H-pyrrolo[2,3-c]-1,7-naphthyridin-1-yl]sulfonyl}-L-prolinamide]	0.39
O=c1c2ncc3c(c(S(=O)(=O)NCCc4c[nH]c5ccccc45)cn3Cc3ccc(F)cc3)c2ccn1O [Example 21, 3-(4-fluorobenzyl)-7-hydroxy-N-[2-(1 H-indol-3-yl)ethyl]-6-oxo-6,7-dihydro-3H-pyrrolo[2,3-c]-1,7-naphthyridine-1-sulfonamide]	0.48
O=C1CN(S(=O)(=O)c2cn(Cc3ccc(F)cc3)c3cnc4c(=O)n(O)ccc4c23)CCN1 [Example 22, 3-(4-fluorobenzyl)-7-hydroxy-1-[(3-oxopiperazin-1-yl)sulfonyl]-3,7-dihydro-6H-pyrrolo[2,3-c]-1,7-naphthyridin-6-one]	0.045
CN(C)S(=O)(=O)c1cn(Cc2ccc(F)cc2)c2cnc3c(=O)n(O)ccc3c12 [Example 23, 3-(4-fluorobenzyl)-7-hydroxy-N,N-dimethyl-6-oxo-6,7-dihydro-3H-pyrrolo[2,3-c]-1,7-naphthyridine-1-sulfonamide]	0.004
O=c1c2ncc3c(c(S(=O)(=O)NCC(F)(F)F)cn3Cc3ccc(F)cc3)c2ccn1O [Example 24, 3-(4-fluorobenzyl)-7-hydroxy-6-oxo-N-(2,2,2-trifluoroethyl)-6,7-dihydro-3H-pyrrolo[2,3-c]-1,7-naphthyridine-1-sulfonamide]	0.022
O=c1c2ncc3c(c(S(=O)(=O)NCc4ccc(F)cc4)cn3Cc3ccc(F)cc3)c2ccn1O [Example 25, N,3-bis(4-fluorobenzyl)-7-hydroxy-6-oxo-6,7-dihydro-3H-pyrrolo[2,3-c]-1,7-naphthyridine-1-sulfonamide]	0.16
CC(C)(C)OC(=O)N1CCC(COCc2cn(Cc3ccc(F)cc3)c3cnc4c(=O)n(O)ccc4c23)CC1 [Example 32, tert-butyl 4-({[3-(4-fluorobenzyl)-7-hydroxy-6-oxo-6,7-dihydro-3H-pyrrolo[2,3-c]-1,7-naphthyridin-1-yl]methoxy)methyl)pip eridine-1-carboxylate]	0.006
O=c1c2ncc3c(c(COCCc4ccccn4)cn3Cc3ccc(F)cc3)c2ccn1O [Example 33, 3-(4-fluorobenzyl)-7-hydroxy-1-[(2-pyridin-2-ylethoxy)methyl]-3,7-dihydro-6H-pyrrolo[2,3-c]-1,7-naphthyridin-6-one]	0.003
